The assay has as its system Rattus norvegicus. Kind of assay: Anti-implantation activity in po dosed rat. Type of assay: functional, organism-based.

Data on 2 compounds can be found in ChEMBL document CHEMBL1147312, “1-Aryl Tetralin Lignans from Larrea tridentata” (J Nat Prod, 1989).

The source made the active and inactive calls. The calls are words filed in the database; no cut-off is given here.

Consider `C[C@H]1[C@H](c2ccc(O)cc2)c2cc(O)c(O)cc2C[C@H]1C`, for which the outcome was Active. Regarding `C[C@H]1[C@H](c2ccc(O)c(O)c2)c2cc(O)c(O)cc2C[C@H]1C`, the result was inactive.
